In ChEMBL document CHEMBL3632615, “N(6)-(2-Hydroxyethyl)adenosine in the Medicinal Mushroom Cordyceps cicadae Attenuates Lipopolysaccharide-Stimulated Pro-inflammatory Responses by Suppressing TLR4-Mediated NF-κB Signaling Pathways” (J Nat Prod, 2015):
Active and inactive are the calls of the source. The rule behind the calls is not given here.

Experiments:
Type in all cases: cell-based
[1] = biological target: T1, Toll-like receptor 4 (Mus musculus) (UniProt Q9QUK6); assay: Inhibition of TLR4-mediated NF-kappaB signaling pathway in BALB/c mouse RAW264.7 cells assessed as suppression of LPS-stimulated TNF-alpha production at 2.5 to 10 ug/ml preincubated for 1 hr followed by LPS challenge measured after 6 hrs by immunoblot analysis
T1 sequence (whole entry): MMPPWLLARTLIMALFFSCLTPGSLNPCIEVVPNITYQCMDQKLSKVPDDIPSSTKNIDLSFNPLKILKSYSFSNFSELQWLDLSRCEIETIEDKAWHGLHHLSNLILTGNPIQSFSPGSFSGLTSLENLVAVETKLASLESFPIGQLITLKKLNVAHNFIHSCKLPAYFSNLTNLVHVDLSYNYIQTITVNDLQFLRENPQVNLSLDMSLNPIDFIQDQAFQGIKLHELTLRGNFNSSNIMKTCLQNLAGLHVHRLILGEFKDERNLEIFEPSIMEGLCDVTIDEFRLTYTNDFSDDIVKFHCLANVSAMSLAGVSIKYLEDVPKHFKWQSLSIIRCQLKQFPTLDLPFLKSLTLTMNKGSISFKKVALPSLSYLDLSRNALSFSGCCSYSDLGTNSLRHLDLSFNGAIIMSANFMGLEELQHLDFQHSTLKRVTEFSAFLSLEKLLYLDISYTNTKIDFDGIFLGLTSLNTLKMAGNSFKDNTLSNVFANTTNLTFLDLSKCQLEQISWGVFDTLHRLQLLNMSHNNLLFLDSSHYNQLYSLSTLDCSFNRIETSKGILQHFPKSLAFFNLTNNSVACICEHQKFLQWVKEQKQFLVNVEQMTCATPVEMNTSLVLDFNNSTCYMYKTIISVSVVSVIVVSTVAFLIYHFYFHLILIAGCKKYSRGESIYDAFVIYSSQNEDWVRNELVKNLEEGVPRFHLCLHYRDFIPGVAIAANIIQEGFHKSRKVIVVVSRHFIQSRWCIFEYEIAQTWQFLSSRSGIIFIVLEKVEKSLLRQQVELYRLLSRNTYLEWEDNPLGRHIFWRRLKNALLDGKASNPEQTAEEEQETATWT

[2] = biological target: T1, Toll-like receptor 4 (Mus musculus); assay: Inhibition of TLR4-mediated NF-kappaB signaling pathway in BALB/c mouse RAW264.7 cells assessed as suppression of LPS-stimulated TNF-alpha production at 0.5 to 5 ug/ml preincubated for 1 hr followed by LPS challenge measured after 6 hrs by immunoblot analysis in presence of cordycepin
[3] = biological target: T1, Toll-like receptor 4 (Mus musculus); assay: Inhibition of TLR4-mediated NF-kappaB signaling pathway in BALB/c mouse RAW264.7 cells assessed as suppression of LPS-stimulated TNF-alpha production at 0.5 to 5 ug/ml preincubated for 1 hr followed by LPS challenge measured after 6 hrs by immunoblot analysis in presence of HEA
[4] = biological target: T1, Toll-like receptor 4 (Mus musculus); assay: Inhibition of TLR4-mediated NF-kappaB signaling pathway in BALB/c mouse RAW264.7 cells assessed as suppression of LPS-stimulated PGE2 production at 2.5 to 10 ug/ml preincubated for 1 hr followed by LPS challenge measured after 6 hrs by immunoblot analysis
[5] = biological target: T1, Toll-like receptor 4 (Mus musculus); assay: Inhibition of TLR4-mediated NF-kappaB signaling pathway in BALB/c mouse RAW264.7 cells assessed as suppression of LPS-stimulated PGE2 production at 0.5 to 5 ug/ml preincubated for 1 hr followed by LPS challenge measured after 6 hrs by immunoblot analysis in presence of cordycepin
[6] = biological target: T1, Toll-like receptor 4 (Mus musculus); assay: Inhibition of TLR4-mediated NF-kappaB signaling pathway in BALB/c mouse RAW264.7 cells assessed as suppression of LPS-stimulated PGE2 production at 0.5 to 5 ug/ml preincubated for 1 hr followed by LPS challenge measured after 6 hrs by immunoblot analysis in presence of HEA
[7] = biological target: T1, Toll-like receptor 4 (Mus musculus); assay: Inhibition of TLR4-mediated NF-kappaB signaling pathway in BALB/c mouse RAW264.7 cells assessed as suppression of LPS-stimulated TNF-alpha production at 1 to 10 ug/ml preincubated for 1 hr followed by LPS challenge measured after 6 hrs by immunoblot analysis
[8] = biological target: T1, Toll-like receptor 4 (Mus musculus); assay: Inhibition of TLR4-mediated NF-kappaB signaling pathway in BALB/c mouse RAW264.7 cells assessed as suppression of LPS-stimulated TNF-alpha production at 0.5 to 5 ug/ml preincubated for 1 hr followed by LPS challenge measured after 6 hrs by immunoblot analysis in presence of adenosine
[9] = biological target: T1, Toll-like receptor 4 (Mus musculus); assay: Inhibition of TLR4-mediated NF-kappaB signaling pathway in BALB/c mouse RAW264.7 cells assessed as suppression of LPS-stimulated PGE2 production at 1 to 10 ug/ml preincubated for 1 hr followed by LPS challenge measured after 6 hrs by immunoblot analysis
[10] = biological target: T1, Toll-like receptor 4 (Mus musculus); assay: Inhibition of TLR4-mediated NF-kappaB signaling pathway in BALB/c mouse RAW264.7 cells assessed as suppression of LPS-stimulated PGE2 production at 0.5 to 5 ug/ml preincubated for 1 hr followed by LPS challenge measured after 6 hrs by immunoblot analysis in presence of adenosine

Row | inhibition [1] | inhibition [2] | inhibition [3] | inhibition [4] | inhibition [5] | inhibition [6] | inhibition [7] | inhibition [8] | inhibition [9] | inhibition [10] | Structure (SMILES)
1 | Active | inactive | inactive | Active | inactive | inactive | – | – | – | – | Nc1ncnc2c1ncn2[C@@H]1O[C@H](CO)[C@@H](O)[C@H]1O
2 | – | – | inactive | – | – | inactive | Active | inactive | Active | inactive | Nc1ncnc2c1ncn2[C@@H]1O[C@H](CO)C[C@H]1O
